Reference: patent US20220348590A1, “CYCLOOXYGENASE-2 INHIBITORS AND USES THEREOF” (The Board Institute, Inc., priority 2019, published 2022)
Where two headings read alike, the source gives them in different places.

Target: T1, human recombinant COX2 (hCOX2) (UniProt P35354)
T1 sequence (P35354 1-604): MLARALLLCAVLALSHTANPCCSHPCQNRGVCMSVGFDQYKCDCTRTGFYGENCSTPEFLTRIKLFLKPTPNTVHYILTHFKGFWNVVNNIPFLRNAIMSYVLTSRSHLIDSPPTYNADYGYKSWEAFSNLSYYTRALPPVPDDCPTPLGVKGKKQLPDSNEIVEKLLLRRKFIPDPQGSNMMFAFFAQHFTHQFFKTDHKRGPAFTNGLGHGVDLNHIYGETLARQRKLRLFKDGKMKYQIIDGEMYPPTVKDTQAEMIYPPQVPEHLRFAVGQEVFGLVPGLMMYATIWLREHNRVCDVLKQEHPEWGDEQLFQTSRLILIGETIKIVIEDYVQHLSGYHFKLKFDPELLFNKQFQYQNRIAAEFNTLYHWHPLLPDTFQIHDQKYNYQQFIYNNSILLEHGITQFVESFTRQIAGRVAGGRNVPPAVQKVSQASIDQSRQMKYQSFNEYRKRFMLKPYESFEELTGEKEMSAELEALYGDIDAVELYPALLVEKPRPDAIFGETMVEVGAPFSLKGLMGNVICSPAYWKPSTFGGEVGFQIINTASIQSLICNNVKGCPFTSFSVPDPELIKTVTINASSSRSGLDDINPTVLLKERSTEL
Test: LCMS-based COX2 enzymatic inhibition assay (PGE2 quantification)
Format: biochemical
Parameters: COX2 2 minutes pge2/pge2d4 area ratio Avg; other: 2 minutes; readout pge2/pge2d4 area ratio; average; COX2 2 minutes pge2/pge2d4 area ratio Avg; LLE; average LLE; COX2 2 minutes pge2 area (counts) Avg; readout pge2 area (counts); other: 2 min; "ovine COX2 (oCOX2), human recombinant COX2 (hCOX2)"
Settings: 2 minutes; for COX2 2 minutes pge2/pge2d4 area ratio Avg. LLE / COX2 2 minutes pge2 area (counts) Avg. LLE: average LLE; for IC50: average
Procedure: We have adapted a previously reported cyclooxygenase enzymatic assay utilizing LCMS quantification of PGE2 as the product of COX-1 and COX2 catalyzed conversion of arachidonic acid to evaluate the binding properties of newly synthesized ligands [Cao, 2011]. These optimized and miniaturized (384-well plates) LCMS-based COX-1 and COX2 enzymatic assays enabled us to quickly evaluate newly synthesized ligands for COX2 binding affinity and selectivity vs COX-1. Using a shorter ligand-enzyme incubation time in the LCMS assay (2 minutes vs 10 minutes) also permitted us to prioritize ligands with faster binding kinetics. Considering the relatively slow on-rate kinetics of known coxibs, due to their 3-step binding mechanism [Marnett, 2009], we believe that optimizing this critical parameter will be key to the successful development of a COX2 PET tracer. Using these enzymatic assays, we have evaluated>200 newly synthesized ligands against COX2 and >20 ligands against COX-1. Another critical property necessary for a good PET radiotracer is to have low non-specific binding (NSB) to increase the free fraction and maximize the signal to noise ratio. This property can be evaluated using in-vitro protein binding assays, and we have now evaluated>50 newly synthesized ligands in mouse, rat and human plasma protein binding (PPB) assays as well as >15 ligands in a mouse brain protein binding (BPB) assay.
Ovine COX-1 (oCOX-1), ovine COX2 (oCOX2), human recombinant COX2 (hCOX2), arachidonic acid, PGE2, d4-PGD2, and […] (labeled with deuterium atoms at positions 3 and 4) were purchased from Cayman Chemicals (Ann Arbor, Mich.). The cofactors (−)epinephrine and hematin, and the COX inhibitors indomethacin, resveratrol and diclofenac were purchased from Sigma-Aldrich (St. Louis, Mo.). Celecoxib was purchased from 3B PharmaChem International (Wuhan, China). All organic solvents were HPLC grade or better and were purchased from Thermo Fisher (Hanover Park, Ill.). Formic acid was purchased from EMD Chemicals (San Diego, Calif.). Purified water was prepared by using a Millipore Milli-Q purification system (Millipore, Billerica, Mass.). All other chemicals and solvents were ACS reagent grade, unless stated otherwise.
In an Eppendorf tube, 146 μL of 100 mM Tris.HCl (pH 8.0) buffer, 2 μL of 100 μM hematin (co-factor) and 10 μL of 40 mM L-epinephrine (co-factor) were mixed at room temperature. Next, 20 μL of Tris.HCl (pH 8.0) buffer containing 0.2 μg COX2 or 0.1 μg COX-1 (approximately 1 unit of enzyme; 1 unit COX utilizes 1 nmol 02/mg/min at 37° C.) was added, and the solution was incubated at room temperature for 2 min. A 2 μL aliquot of the COX inhibitor in DMSO was added to the enzyme solution and preincubated at 37° C. for 10 min. Negative controls were identical except that 2 μL aliquots of DMSO without inhibitor were used instead.
Each COX reaction was initiated by adding 20 μL of arachidonic acid in Tris.HCl (pH 8.0) buffer to give a final concentration of 5 μM; and the reaction was terminated after 2 min by adding 20 μL of 2.0 M HCl. The surrogate standards d4-PGE2 and d4-PGD2 (10 μL aliquot of 50 ng/mL solution in methanol) were added to correct for errors or degradation during sample handling and for variation in injection volume or instrument response during LC-MS-MS. After 30 min, PGE2, PGD2 and their surrogate standards were extracted from each incubation mixture using 800 μL hexane/ethyl acetate (50:50, v/v). The organic phase was removed, evaporated to dryness, and reconstituted in 100 μL methanol/water (50:50, v/v) for analysis using LC-MS-MS.
The concentration of PGE2 in each sample was measured using LC-MS-MS, and the percent of COX inhibition by each test solution was determined by comparing the amount of PGE2 produced in the experiment with that produced in the negative control incubation. The formation of PGD2 was measured for quality control purposes, since the levels of PGD2 should be proportional to those of PGE2. […]

[1] = readout pge2/pge2d4 area ratio, read-out: COX2 2 minutes pge2/pge2d4 area ratio Avg. IC50
[2] = readout pge2 area (counts), read-out: COX2 2 minutes pge2 area (counts) Avg. IC50
[3] = read-out: COX2 2 minutes pge2/pge2d4 area ratio Avg. IC50 (microM), readout pge2/pge2d4 area ratio, 2 min

| SMILES | COX2 2 minutes pge2/pge2d4 area ratio Avg. LLE (readout pge2/pge2d4 area ratio) | IC50 [1] | COX2 2 minutes pge2 area (counts) Avg. LLE (readout pge2 area (counts)) | IC50 [2] | IC50 (read-out: COX2 2 minutes pge2/pge2d4 area ratio Avg. IC50 (microM), readout pge2/pge2d4 area ratio) | IC50 [3] |
| --- | --- | --- | --- | --- | --- | --- |
| CS(=O)(=O)c1ccc(-c2cccc(C3CC3c3ccoc3)n2)cc1 (single isomer, unassigned) [Compound 115, 2-[2-(furan-3-yl)cyclopropyl]-6-(4-methanesulfonylphenyl)pyridine] | 2.867 | 0.107 µM | 2.982 | 0.0632 µM | – | – |
| CS(=O)(=O)c1ccc(-c2cncc(OC[C@@H]3CCCS3)n2)cc1 (single isomer, unassigned) [Compound 170] | 4.61 | 0.442 µM | 4.149 | 0.931 µM | – | – |
| CS(=O)(=O)c1ccc(-c2cccc(C3CC3c3ccoc3)n2)cc1 (single isomer, unassigned) [Compound 177, 2-[2-(furan-3-yl)cyclopropyl]-6-(4-methanesulfonylphenyl)pyridine] | 3.065 | 0.534 µM | 2.982 | 0.635 µM | – | – |
| CS(=O)(=O)c1ccc(-c2cncc(SC[C@@H]3CCCO3)n2)cc1 (single isomer, unassigned) [Compound 186] | 4.315 | 0.627 µM | 4.316 | 0.616 µM | – | – |
| CS(=O)(=O)c1ccc(-c2cncc(OC[C@H]3CCCS3)n2)cc1 (single isomer, unassigned) [Compound 198] | 4.116 | 0.964 µM | 4.04 | 1.23 µM | – | – |
| CS(=O)(=O)c1ccc(-n2ccc3ccc([C@@H](O)c4cccs4)nc32)cc1 (single isomer, unassigned) [Compound 209] | – | 1.34 µM | – | 1.44 µM | – | – |
| C[C@@H](Oc1cccc(-c2ccc(S(C)(=O)=O)cc2)n1)c1cccs1 (single isomer, unassigned) [Compound 229] | 1.429 | 2.25 µM | 1.483 | 1.99 µM | – | – |
| C[C@H](Nc1cccc(-c2ccc(S(C)(=O)=O)cc2)n1)c1ccoc1 (single isomer, unassigned) [Compound 241] | 2.087 | 2.96 µM | 1.8776 | 4.36 µM | – | – |
| C[C@@H](Oc1cncc(-c2ccc(S(C)(=O)=O)cc2)n1)c1cccs1 (single isomer, unassigned) [Compound 249] | 2.526 | 3.44 µM | 2.379 | 4.08 µM | – | – |
| C[C@@H](Nc1cccc(-c2ccc(S(C)(=O)=O)cc2)n1)c1ccco1 (single isomer, unassigned) [Compound 274] | 1.914 | – | 1.914 | – | 5.2 µM | – |
| CS(=O)(=O)c1ccc(-c2cccc(C3CC3c3ccoc3)n2)cc1 (single isomer, unassigned) [Compound 314, 2-[2-(furan-3-yl)cyclopropyl]-6-(4-methanesulfonylphenyl)pyridine] | – | – | 2.024 | – | – | 5.2 µM |
| CS(=O)(=O)c1ccc(-c2cccc(C3CC3c3ccoc3)n2)cc1 (single isomer, unassigned) [Compound 322, 2-[2-(furan-3-yl)cyclopropyl]-6-(4-methanesulfonylphenyl)pyridine] | – | – | – | – | – | 5.2 µM |

The remaining compounds from weak to strong by IC50 [1], led by results:

| COX2 2 minutes pge2/pge2d4 area ratio Avg. LLE (readout pge2/pge2d4 area ratio) | IC50 [1] | COX2 2 minutes pge2 area (counts) Avg. LLE (readout pge2 area (counts)) | IC50 [2] | SMILES | IC50 (read-out: COX2 2 minutes pge2/pge2d4 area ratio Avg. IC50 (microM), readout pge2/pge2d4 area ratio) | IC50 [3] |
| --- | --- | --- | --- | --- | --- | --- |
| – | 0.437 µM | – | 0.425 µM | CS(=O)(=O)c1ccc(-n2ccc3ccc([C@H](O)c4cccs4)nc32)cc1 (single isomer, unassigned) [Compound 168] | – | – |
| 4.792 | 0.432 µM | 4.782 | 0.433 µM | CS(=O)(=O)c1ccc(-c2cncc(NC[C@@H]3CCCS3)n2)cc1 (single isomer, unassigned) [Compound 167] | – | – |
| 4.811 | 0.401 µM | 4.888 | 0.345 µM | CS(=O)(=O)c1ccc(-c2cncc(NC[C@H]3CCCS3)n2)cc1 (single isomer, unassigned) [Compound 162] | – | – |
| 4.687 | 0.315 µM | 4.726 | 0.295 µM | CS(=O)(=O)c1ccc(-c2cncc(SC[C@H]3CCCO3)n2)cc1 (single isomer, unassigned) [Compound 154] | – | – |
| 3.614 | 0.102 µM | 3.525 | 0.108 µM | C[C@@H](Nc1cccc(-c2ccc(S(C)(=O)=O)cc2)n1)c1ccoc1 (single isomer, unassigned) [Compound 112] | – | – |
| 3.84 | 0.0656 µM | 3.875 | 0.06 µM | C[C@H](Nc1cccc(-c2ccc(S(C)(=O)=O)cc2)n1)c1ccco1 (single isomer, unassigned) [Compound 89] | – | – |
| – | 0.0305 µM | – | 0.0265 µM | CS(=O)(=O)c1ccc(-c2coc3ccc(NCc4ccoc4)nc23)cc1 [Compound 55] | – | – |
| 4.502 | 0.0188 µM | 4.487 | 0.0207 µM | Cc1cocc1CNc1cccc(-c2ccc(S(C)(=O)=O)cc2)n1 [Compound 40] | – | – |
| 5.719 | 0.0112 µM | 5.729 | 0.0112 µM | COc1ncc(OCc2ccoc2)nc1-c1ccc(S(C)(=O)=O)cc1 [Compound 22] | – | – |
| 4.855 | 0.006 µM | 4.615 | 0.0141 µM | CS(=O)(=O)c1ccc(-c2cncc(OCc3ccc(Cl)s3)n2)cc1 [Compound 4] | – | – |
